Test [1] has as its target T1, activated p38 (Homo sapiens, UniProt Q16539). As to the kind of experiment: Inhibition of phosphorylation of EGF receptor peptide ("kinase"). Format: biochemical. To be noted: inhibition of phosphorylation of EGF receptor peptide by activated p38. Put shortly:
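Activated p38 was preincubated with inhibitor for 15 min at room temperature in 100 mM HEPES pH 7.6, 10 mM MgCl2, 25 mM β-glycerophosphate, 10% glycerol, 5% DMSO final. Reaction used 200 μM EGF receptor peptide and 100 μM ATP for 30 min at 30° C. TFA-quenched phosphopeptide was quantified by reverse-phase HPLC.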

Test [2] concerns the target T1, activated p38. The test can be described thus: Inhibition of ATPase activity. Format: biochemical. The conditions noted are these: ATPase activity of activated p38 (60 nM), 30° C., 30 minutes. How it is done:
This assay was carried out in the presence of 10 mM MgCl2, 25 mM β-glycerophosphate, 10% glycerol and 100 mM HEPES buffer at pH 7.6. For a typical Ki determination, the Km for ATP in the ATPase activity of activated p38 reaction was determined in the absence of inhibitor and in the presence of two concentrations of inhibitor. A stock solution was prepared containing all of the above components and activated p38 (60 nM). The stock solution was aliquotted into vials. […] The reaction was initiated by adding various concentrations of ATP and then incubated at 30° C. After 30 minutes, the reactions were quenched with 50 μl of EDTA (0.1 M, final concentration), pH 8.0. The product of p38 ATPase activity, ADP, was quantified by HPLC analysis.
Separation of ADP from ATP was achieved on a reversed phase column (Supelcosil, LC-18, 3 μm, part no. 5–8985) using a binary solvent gradient of following composition: Solvent A—0.1 M phosphate buffer containing 8 mM tetrabutylammonium hydrogen sulfate (Sigma Chemical Co., catalogue no. T-7158), Solvent B—Solvent A with 30% methanol.
Ki was determined from the rate data as a function of inhibitor and ATP concentrations.

The test system of test [3] is IL-1 production in LPS-stimulated PBMCs. The test can be described thus: Inhibition of IL-1 production in LPS-stimulated PBMCs ("cell"). The conditions noted are these: Homo sapiens, PBMC. Format: cell-based, human. A digest of the protocol: (§1)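 Human PBMCs (4.8×10^6 cells/ml, RPMI1640/10% FBS) pre-treated with inhibitor dilutions, then stimulated with 4 ng/ml LPS final and incubated overnight (12–15 h) at 37 °C/5% CO2. Supernatant IL-1β and TNF-α measured by ELISA; IC50 from dose-response curves.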

In test [4] the test system is TNF production in LPS-stimulated PBMCs. As to the kind of experiment: Inhibition of TNF production in LPS-stimulated PBMCs ("cell"). Format: cell-based, human. The conditions noted are these: Homo sapiens, PBMC. A digest of the protocol:
as §1

In test [5] the test system is IL-6 production in IL-1-stimulated PBMCs. The test can be described thus: Inhibition of IL-6 production in IL-1-stimulated PBMCs. Format: cell-based. To be noted: Homo sapiens, PBMC; IL-1b-stimulated PBMCs, ELISA, overnight incubation. As for the experimental part: (§2) This assay was carried out on PBMCs exactly the same as above except that 50 μl of an IL-1b working stock solution (2 ng/ml in cell culture medium) was added to the assay instead of the (LPS) working stock solution.
(§3) Cell culture supernatants were harvested as described above and analyzed by ELISA for levels of IL-6 (Endogen, #EH2-IL6) and IL-8 (Endogen, #EH2-IL8) according to the instructions of the manufacturer. The ELISA data were used to generate dose-response curves from which IC50 values were derived.
(ELISA stands for enzyme-linked immunosorbent assay.)

The subject of test [6] is IL-8 production in IL-1-stimulated PBMCs. As to the kind of experiment: Inhibition of IL-8 production in IL-1-stimulated PBMCs. Format: cell-based. To be noted: Homo sapiens, PBMC; IL-1b-stimulated PBMCs, ELISA, overnight incubation. How it is done: as §2, §3
The subject of test [7] is LPS induced PGHS-2 expression in PBMCs. The test can be described thus: Inhibition of LPS-induced prostaglandin endoperoxide synthase-2 (PGHS-2, or COX-2) induction in PBMCs. Format: cell-based, human. The conditions noted are these: PBMCs, 0.2, 2.0 and 20 μM compound, LPS 4 ng/ml, overnight, anti-COX-2 immunoblot. As for the experimental part: Human peripheral mononuclear cells (PBMCs) were isolated from fresh human blood buffy coats by centrifugation in a Vacutainer CPT (Becton & Dickinson). We seeded 15×10^6 cells in a 6-well tissue culture dish containing RPMI 1640 supplemented with 10% fetal bovine serum, 50 U/ml penicillin, 50 μg/ml streptomycin, and 2 mM L-glutamine. Compound 6 (above) was added at 0.2, 2.0 and 20 μM final concentrations in DMSO. Then we added LPS at a final concentration of 4 ng/ml to induce enzyme expression. The final culture volume was 10 ml/well.
After overnight incubation at 37° C., 5% CO2, the cells were harvested by scraping and subsequent centrifugation, then the supernatant was removed, and the cells were washed twice in ice-cold DPBS (Dulbecco's phosphate buffered saline, BioWhittaker). The cells were lysed on ice for 10 min in 50 μl cold lysis buffer (20 mM Tris-HCl, pH 7.2, 150 mM NaCl, 1% Triton-X-100, 1% deoxycholic acid, 0.1% SDS, 1 mM EDTA, 2% aprotinin (Sigma), 10 μg/ml pepstatin, 10 μg/ml leupeptin, 2 mM PMSF, 1 mM benzamidine, 1 mM DTT) containing 1 μl Benzonase (DNAse from Merck). The protein concentration of each sample was determined using the BCA assay (Pierce) and bovine serum albumin as a standard. Then the protein concentration of each sample was adjusted to 1 mg/ml with cold lysis buffer. […]
(In general: Immunoblotting shows a protein as a band on a membrane.)

Test [8] concerns IL-1 production in whole blood. As to the kind of experiment: Inhibition of IL-1 production in LPS-stimulated whole blood ("WB"). To be noted: Homo sapiens. Format: cell-based, human. A digest of the protocol: (§4)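 Anticoagulated whole blood was preincubated with serially diluted compound, then stimulated with 4 ng/ml LPS (final) overnight (12–15 h) at 37° C/5% CO2. Supernatant IL-1b, TNF-α and IL-6 were measured by ELISA and IC50 derived from dose-response curves.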

Test [9] deals with TNF production in whole blood. The test can be described thus: Inhibition of TNF production in LPS-stimulated whole blood ("WB"). To be noted: Homo sapiens. Format: cell-based, human. Put shortly:
as §4

Test [10] deals with IL-6 production in whole blood. As to the kind of experiment: Inhibition of IL-6 production in LPS-stimulated whole blood ("WB"). The conditions noted are these: Homo sapiens. Format: cell-based, human. A digest of the protocol:
as §4

SMILES strings stand for the structures.

By IC50 is commonly meant the concentration at which inhibition is half-maximal. Higher therefore signals weaker potency. As a reminder, the Ki is the dissociation constant of the complex between target and ligand, obtained from inhibition or displacement.

T1 sequence (Q16539 whole entry): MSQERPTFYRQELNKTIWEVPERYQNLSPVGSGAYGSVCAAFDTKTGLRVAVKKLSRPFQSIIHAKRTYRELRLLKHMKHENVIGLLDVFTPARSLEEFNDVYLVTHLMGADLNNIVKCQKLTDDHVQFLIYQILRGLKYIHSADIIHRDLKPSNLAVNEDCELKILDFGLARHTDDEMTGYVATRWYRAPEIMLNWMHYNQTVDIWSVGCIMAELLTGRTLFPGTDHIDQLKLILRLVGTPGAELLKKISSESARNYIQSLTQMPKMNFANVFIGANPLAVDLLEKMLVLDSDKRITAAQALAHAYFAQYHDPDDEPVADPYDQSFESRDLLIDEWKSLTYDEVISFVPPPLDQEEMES

In the case of `O=c1ncn2nc(Sc3ccccc3)ccc2c1-c1ccc(F)cc1` [Compound 2], on activated p38 [1], the IC50 is at least 1000 nM. The affinity at activated p38 [2], expressed as Ki, was 15000 nM.
At activated p38 [1], `O=c1ncn2nc(Sc3ccccc3)ccc2c1-c1ccc(Cl)cc1Cl` [Compound 3] displayed an IC50 of at least 1000 nM. The same molecule registered a Ki at activated p38 [2] of 5000 nM.
The like results for `Cc1ccc(Sc2ccc3c(-c4ccc(Cl)cc4Cl)c(=O)ncn3n2)cc1` [Compound 5] were, in that order, at least 1000 nM and 2900 nM.
As for `O=c1ncn2nc(Sc3ccccc3)ccc2c1-c1c(Cl)cccc1Cl` [Compound 6], the IC50 is 100 to 1000 nM against activated p38 [1]; 100 to 500 nM in test [3]; at least 500 nM in test [4]; 600 nM in test [5]; 850 nM in test [6]. Besides, the Ki at activated p38 [2] was 400 nM. Also, the “LPS induced PGHS-2 expression” value in test [7] is recorded as “inhibits LPS induced PGHS-2 expression in PBMCs”.
Regarding `Cc1cc(F)ccc1-c1cccc(C(C(N)=O)c2c(Cl)cc(N)cc2Cl)n1` (stereo not shown) [Compound 364], the IC50 against activated p38 [1] is at most 100 nM; in [3] it was at most 100 nM; in test [4], 100 to 500 nM; in [8], at least 500 nM; in test [9], at least 500 nM; in [10], at least 500 nM.
With `NC(=O)N(c1cccc(-c2ccccc2)n1)c1c(Cl)cccc1Cl` [Compound 401], the IC50 is at most 100 nM against activated p38 [1]; 100 to 500 nM in test [3]; 100 to 500 nM in [4]; at least 500 nM in [8]; at least 500 nM in [9]; at least 500 nM in test [10].
`Cc1ccccc1-c1cccc(N(C(N)=O)c2c(Cl)cccc2Cl)n1` [Compound 402]: the IC50 against activated p38 [1] is at most 100 nM; in [3], at most 100 nM; in test [4], at most 100 nM; in test [8], at least 500 nM; in test [9], at least 500 nM; in test [10] it was at least 500 nM.
With `Cc1ccccc1-c1cccc(N(C(N)=O)c2c(F)cccc2F)n1` [Compound 403], the IC50 at activated p38 [1] was at most 100 nM; in test [3] it was at most 100 nM; in test [4], at most 100 nM; in test [8], at least 500 nM; in [9], at least 500 nM; in test [10], 250 to 500 nM.
`NC(=O)N(c1cccc(-c2ccc(F)cc2)n1)c1c(F)cccc1F` [Compound 404]: the IC50 on activated p38 [1] is at most 100 nM; in [3] it was at most 100 nM; in [4], at most 100 nM; in test [8], at least 500 nM; in test [9], at least 500 nM; in [10] it was at least 500 nM.
With `Cc1cc(F)ccc1-c1cccc(N(C(N)=O)c2c(Cl)cccc2Cl)n1` [Compound 409], the IC50 against activated p38 [1] is at most 100 nM; in [3], at most 100 nM; in [4], at most 100 nM; in test [8] it was at least 500 nM; in test [9], at least 500 nM; in test [10], 250 to 500 nM.
For `Cc1cc(F)ccc1-c1cccc(N(C(N)=O)c2c(F)cccc2F)n1` [Compound 410], the IC50 at activated p38 [1] is at most 100 nM; in test [3], at most 100 nM; in test [4] it was at most 100 nM; in test [8] it was 250 to 500 nM; in [9], 250 to 500 nM; in test [10], 250 to 500 nM.
Take `Cc1cc(F)ccc1-c1cccc(N(C(N)=O)c2cc3c(cc2Cl)OCO3)n1` [Compound 411]: the IC50 at activated p38 [1] was at most 100 nM; in [3] it was at most 100 nM; in [4], at most 100 nM; in test [8], at least 500 nM; in [9] it was at least 500 nM; in test [10], at least 500 nM.

Source of the values: patent US7205305B2, “Inhibitors of p38” (Vertex Pharmaceuticals Incorporated, priority 1996, dated 2007).
